Assay results: patent US8557784B2, “Glycyrrhizinates of morphinan derivatives” (Standard Chem. & Pharm. Co., Ltd., priority 2011, dated 2013)
Structures can show the parent of a compound that is named as a salt.

Key:
[1] = Solubility in water: water added by degrees until 0.1 g of compound fully dissolves; settings: for Water quantity for dissolving 0.1 g solute: 28° C.
[2] = in words; cited from earlier work
[3] = tested on: e-NOS; experiment: e-NOS expression in Wistar rat pulmonary artery (Western blot); type: cell-based; settings: rat pulmonary artery incubated 2 hours with 0.01 mg/ml (10^-5 M); actin as internal control; FIG. 1
Description: The e-NOS expression of dextromethorphan glycyrrhizinate and dimemorfan glycyrrhizinate are carried out via the following procedures.
The blank control group were not added with dextromethorphan glycyrrhizinate or dimemorfan glycyrrhizinate. After incubated for 2 hours, the pulmonary artery were lysed in ice-cold homogenization buffer. The homogenates were centrifuged at 13,000 rpm for 10 minutes at 4° C. The protein concentration was determined by the method of Bradford. Samples were denatured and subjected to sodium dodecylsulfate polyacrylamide gel electrophoresis (SDS-PAGE) using a 7.5% running gel. Protein were transferred to polyvinylidene difluoride (PVDF) membrane, and the PVDF membrane was incubated successively at room temperature with 5% nonfat milk-0.1% Tween-Tris buffered saline for 1 hour, with rabbit antibodies specific for anti-eNOS for 1 hour, and with horseradish peroxidase conjugated anti-rabbit IgG antibodies (HRP-conjugated anti-rabbit IgG Ab) for 1 hour. After each incubation, the membrane was washed extensively with 0.1% Tween-Tris buffered saline. The immunoreactive bands were detected by ECL reagents.
The expressions of actins are also tested at the same time to be the internal control and are depicted in the middle panel of FIG. 1.

COc1ccc2c(c1)[C@]13CCCC[C@@H]1[C@H](C2)N(C)CC3 [Dextromethorphan hydrobromide]
Solubility (28° C.) [1]: 2.5%

COc1ccc2c(c1)[C@]13CCCC[C@@H]1[C@H](C2)N(C)CC3 [dextromethorphan]
Solubility in water [2]: water insoluble

Dimemorfan phosphate
Solubility (28° C.) [1]: 2.5%
Water quantity for dissolving 0.1 g solute [1]: 4 mL

dextromethorphan glycyrrhizinate
e-NOS expression [3]: good e-NOS expression

dimemorfan glycyrrhizinate
e-NOS expression [3]: good e-NOS expression
Solubility (28° C.) [1]: 0.05%
Water quantity for dissolving 0.1 g solute [1]: 200 mL
